Source: patent US20250000874A1, “BACTERIAL METABOLITES AND THEIR USE IN REDUCING INFLAMMATION” (LOYOLA UNIVERSITY OF CHICAGO, priority 2023, published 2025)
Entries after “also recorded” stand apart in the source; their conditions may differ.

Legend:
THP-1 cells = assay: NC on TNFα release in THP-1 cells in response to TLR agonists; assay type: cell-based, human; details: 50 μM NC 18 hours
Protocol: FIG. 27A and FIG. 27B. Metabolite NC on TNFα release in response to LPS in human and murine macrophages in vitro. Macrophages were plated at a uniform density of 0.2×10^6 cells/mL in 24 well plates. These cells (FIG. 27A) were allowed to adhere, or, in the case of THP-1 cells FIG. 27B), differentiate using PMA. They were then treated for 18 hours with 50 μM of metabolite NC before being stimulated with 0.1 ug of LPS-EK. Supernatant was collected between 4-6 hours after addition of LPS and debris was removed via centrifugation at 1250 rpm for 5 minutes. TNFα was quantified in the supernatant using sandwich ELISA with standards of known concentrations.
FIG. 28A and FIG. 28B. Metabolite NC on TNFα release in macrophages in response to various TLR agonists. Raw 264.7 cells (FIG. 28A) and THP-1 FIG. 28B) cells were plated at a uniform density of 0.2×10^6 cells per mL and stimulated with various TLR agonists: Pam3CSK4, Poly I:C, LPS, Fla, FSL-1, imiquimod (ImiQ), and ODN-2006. NC reduced TNFα release in response to TLR3 (p<0.0001 via student's t-test for both Raw 264.7 cells and THP-1 cells) and TLR4 agonists in both cell lines.
To investigate the effects of compound NC, macrophages were stimulated with LPS, an endotoxin associated with gram-negative bacteria. Human and murine macrophage-like cells (THP-1 cells and Raw 264.7 cells, respectively) were plated in 24 well plates at a uniform density of 0.2×10^6 cells/mL. Following 18 hours of pretreatment with 50 μM metabolite NC, they were stimulated with 10 μg/mL of LPS. After 4-6 hours, supernatant was collected and TNFα was quantified using sandwich ELISA. NC reduces TNFα release from both THP-1 and Raw 264.7 macrophage-like cells in response to TLR4 agonist LPS in vitro.
Metabolite NC reduces inflammation in response to TLR4 agonist LPS. To further investigate the specificity of NC's action in TLR signaling, Raw 264.7 (FIG. 28A) and THP-1 (FIG. 28B) cells were once again plated at a uniform density of 0.2×10^6 cells/mL, treated with 50 μM metabolite NC for 18 hours, and stimulated with agonists for TLR1/2, TLR3, TLR4, TLR5, TLR6/2, TLR7 and TLR9. After 4-6 hours, supernatant was collected and TNFα was quantified via sandwich ELISA.

dry eye disease model = assay: Murine experimental dry eye (DED) model, ICES; assay type: in vivo, mouse
Text: FIG. 12. Corneal Florescein Staining with JE-treated Experimental Dry Eye. Mean corneal staining score with JE/control topical treatment (4 times/day) starting 3 weeks after housing in ICES. Group 1: Normal control (non DED); group 2: Dry Eye treated with JE (JE+DED); Group 3: Dry Eye treated with vehicle (control DED). P value: *: <0.05. One of two experiments is shown.
FIG. 25. Pro-Inflammatory IL-6 Cytokine Expression in Corneal Tissues Isolated from Control, Vehicle Control, and Treatment Groups. Corneal samples from the three groups were isolated, stabilized in RNA later, and stored at-80. Corneal samples were homogenized, and RNA was purified using RNAeasy mini-kit. A total of 0.5 μg-1 μg RNA was yielded. RT-qPCR was performed. Values were normalized to GAPDH control, and fold induction was measured as 2-ΔΔCT. One of two experiments is shown.
We further tested if JE reduced corneal tissue damage in a murine DED model. Thus, normal C57BL/6J mice were maintained in relative humidity 60% to 80%, no airflow at 21-23° C. as normal control (Group 1). The experimental dry eye was induced by using an Intelligently Controlled Environmental System (ICES). Dry eye mice (Group 2 and Group 3) were housed in ICES with relative humidity at 13+4%, airflow of 2.2+0.2 m/s, and temperature of 21-23° for 3 weeks. Group 2 mice were treated with 10 μL JE at 50 μM 0.35% (v/v) DMSO in PBS and group 3 (vehicle control) were treated with 10 μL of 0.35% (v/v) DMSO in PBS, 4 time/day topically for 14 days. Corneal fluorescein staining was evaluated at week 0, 3 and 5. The stained area was assessed according to a standardized grading system ranging from 0 to 4, with the corneal surface divided into five regions. Then the total scores from the five regions were analyzed. […] The data strongly support that JE (3,3-Difluoro-5-alpha-androstan-17-beta-yl acetate) can be used as therapeutic agent for non-infectious inflammatory diseases. […]
This pattern of staining points to significant corneal damage and inflammation. […] Next, the IL-6 cytokine expression was measured in corneal samples using RT-qPCR. […]

CCCCCCCCCCCCCCCC(=O)N[C@@H](C(=O)O)[C@H](C)O [NC, N-Palmitoyl-D-Threonine] was tested, and the “TNFα release in response to TLR3 agonist Poly I:C” value (THP-1 cells; 4-6 hours, ELISA) was “reduced”, the “TNFα release in response to TLR4 agonist LPS” value (THP-1 cells; LPS, 4-6 hours, ELISA) was “reduced; also recorded: significantly less” and the “TNFα release in the absence of LPS stimulation” value (THP-1 cells; unstimulated) was “did not increase; also recorded: does not increase”. For the same compound, the “TNFα release in response to other TLR agonists” value (THP-1 cells; TLR1/2, TLR5, TLR6/2, TLR7, TLR9 agonists) was “did not significantly reduce”.

In the case of CC(=O)O[C@@H]1CC[C@H]2[C@H]3CC[C@H]4CC(F)(F)CC[C@]4(C)[C@H]3CC[C@]12C [JE, 3,3-Difluoro-5-alpha-androstan-17-beta-yl acetate], the “corneal fluorescein staining score” value (dry eye disease model; 10 μL JE 50 μM topically 4 times/day for 14 days after 3 weeks in ICES, vs vehicle control, day 35) is reported as “significantly reduced”, the “IL-6 expression in corneal samples (RT-qPCR)” value (dry eye disease model; JE eye drops four times a day for 14 days) is reported as “decreased; also recorded: did not return to the baseline” and the “surface area of corneal damage” value (dry eye disease model; JE eye drops four times a day for 14 days, relative to vehicle control) is reported as “decrease”.
